Measured values: publication PMC6600163, “Inhibitory Effects of Diketopiperazines from Marine-Derived Streptomyces puniceus on the Isocitrate Lyase of Candida albicans” (Molecules, 2019)
Values after ≈ are worked out from the molar mass of the structure shown. Values joined by “and” are separate entries in the source; they are usually repeats but may differ in a detail not shown here. Equal values may be shown once. “Also recorded” adds a separate entry of the source. Read-outs that look alike come from different tables or passages of the source. Values belong to the molecule of their own block, whether it stands above or below them.

Key:
C. albicans SC5314 = test: In vitro growth assay (MIC) in YNB broth; assay type: cell-based, Candida albicans; settings: 28 °C
Text: (§1) The glyoxylate cycle is necessary for virulence in C. albicans, which can survive in macrophages under abundant carbon sources, such as fatty acids or their breakdown products. When C. albicans is phagocytosed by a macrophage, the shift in metabolism from glycolysis to the glyoxylate cycle is activated so that the cells can utilize C2 carbon sources. It was expected that ICL inhibitors would reduce the nutrient uptake capacity and impede survival of the pathogen in the macrophage. To determine whether cyclo(L-Phe-L-Val) affects C2 substrate use, C. albicans strains SC5314, ATCC10231, ATCC10259, ATCC11006, and ATCC18804 were grown in YNB liquid broth containing either 2% glucose or 2% acetate as the sole carbon source.
(§2) C. albicans strains were cultured in YNB broth containing 2% glucose at 28 °C for 24 h, centrifuged at 15,000× g for 1 min, and washed twice with sterile distilled water. […] Additional DMSO was added to the medium at a final concentration of 0.5%. The fungal strain culture (20 μL) was poured into a 96-well assay plate at a final concentration of 1 × 10^4 cells/mL and total volume of 100 μL. The culture plates were incubated at 28 °C for 3 days. The positive control was amphotericin B, which is a known antifungal compound.

[1] = target: T1, recombinant ICL (isocitrate lyase) from C. albicans ATCC10231 (Candida albicans, UniProt Q9P8Q7); test: biochemical
T1 construct: made in house
Protocol: Isolated diketopiperazines were tested for ICL inhibitory activity according to methods reported previously. […] To determine the type of inhibition, kinetic analysis was performed with cyclo(L-Phe-L-Val) (inhibitor) and phenylhydrazine […]. The inhibitor constant (Ki) was calculated from the Dixon plot.
S. puniceus Act1085 was used as the diketopiperazine-producing strain. C. albicans SC5314 (ATCC MYA-2876) (wild-type), MRC10 (Δicl) (icl-deletion mutant), MRC11 (Δicl + ICL) (icl-deletion mutant), […], ATCC18804, and ATCC11006 were used for the growth assay. C. albicans ATCC10231 was used to obtain recombinant ICL. Prof. Michael C. Lorenz (University of Texas Health Science Center, Houston, TX, USA) kindly provided the ICL mutants.
Before evaluation of the ICL inhibitory activity of the test compounds, the recombinant ICL from C. albicans was prepared according to methods described in a previous report. The ICL inhibitory activity of the test compounds was determined according to a previously described method. The ICL inhibition assay is based on the principle that glyoxylate phenylhydrazone forms in the reaction reagent after treatment with isocitrate and phenylhydrazine. Each test compound was dissolved in DMSO. The reaction mixture consisted of 20 mM sodium phosphate buffer (pH 7.0), 1.27 mM threo-DL(+)isocitrate, 3.75 mM MgCl2, 4.1 mM phenylhydrazine, and 2.5 μg/mL purified ICL and was incubated with or without the test compounds at a concentration range of 1–128 μg/mL at 37 °C for 30 min. The increase in intensity of absorbance resulting from the formation of glyoxylate phenylhydrazone was observed using a spectrophotometer (Shimadzu) at a wavelength of 324 nm. The inhibitory activity of the test compound was calculated relative to that of the DMSO control (n = 3). The methods for determination of the IC50 value and ICL enzyme concentrations have been described in previous reports. A known ICL inhibitor, 3-nitropropionate, was used as a reference control.

C. albicans ATCC18804 = test: In vitro growth assay (MIC) in YNB broth; assay type: cell-based; settings: Candida albicans, ATCC18804, 72 h, 28 °C
Text: as §1, §2

C. albicans ATCC11006 = test: In vitro growth assay (MIC) in YNB broth; assay type: cell-based; settings: Candida albicans, ATCC11006, 72 h, 28 °C
Text: as §1, §2

C. albicans ATCC10231 = test: In vitro growth assay (MIC) in YNB broth; assay type: cell-based; settings: Candida albicans, ATCC10231, 72 h, 28 °C
Text: as §1, §2

C. albicans ATCC10259 = test: In vitro growth assay (MIC) in YNB broth; assay type: cell-based; settings: Candida albicans, ATCC10259, 72 h, 28 °C
Text: as §1, §2

icl mRNA expression = test: icl expression analysis by semi-quantitative RT-PCR; assay type: cell-based, Candida albicans; settings: SC5314 and MRC11, 2% potassium acetate plus 8, 16, 32 μg/mL compound, 4 h, 28 °C
Protocol: (§3) To determine whether the cell phenotype of the icl-deletion mutant is affected by the presence of cyclo(L-Phe-L-Val), a growth assay was conducted using C. albicans SC5314 (wild type) and two icl-deletion mutants (MRC10 and MRC11). After pre-culture, these strains were streaked onto YNB agar containing 2% glucose or 2% potassium acetate with or without 32 μg/mL cyclo(L-Phe-L-Val). All strains grew normally on both the plates with glucose and with glucose plus the compound. […] We further conducted semi-quantitative reverse-transcription (RT)-PCR to assess the effects of cyclo(L-Phe-L-Val) on ICL expression. No ICL-specific PCR product was detected in the cultures when SC5314 and MRC11 were grown in YNB liquid broth containing glucose. […] GPDH expression was detected in all treatments regardless of cyclo(L-Phe-L-Val) exposure.
(§4) Figure 3 Analysis of growth phenotypes and icl mRNA expression. […] Total RNA was prepared from these cells, and icl mRNA expression was analyzed by semi-quantitative RT-PCR. The GPDH housekeeping gene was evaluated as a loading control.
(§5) C. albicans SC5314 (wild type) and icl-deletion mutants (MRC10 and MRC11) were cultured in YNB broth containing 2% glucose at 28 °C on a rotary shaker for 24 h. […] RNA extraction, cDNA synthesis, and semi-quantitative RT-PCR were performed using previously described methods. […]

[2] = system: C. albicans strains SC5314, ATCC10231, ATCC10259, ATCC11006, and ATCC18804; test: In vitro growth assay, summary over five strains; assay type: cell-based, Candida albicans
Text: as §1, §2

[3] = system: C. albicans SC5314 (wild type) and icl-deletion mutants (MRC10 and MRC11); test: Growth phenotype on YNB agar plates; assay type: cell-based, Candida albicans; settings: 2 days, 28 °C
Protocol: as §3, §4, §5

[4] = Candida albicans, SC5314, 72 h, 2% glucose, read-out: MIC
[5] = Candida albicans, SC5314, 72 h, 2% potassium acetate, read-out: MIC
[6] = ICL IC50, 37 °C, 30 min, pH 7.0, n = 3
[7] = Candida albicans, SC5314, 2% glucose, 72 h, read-out: MIC

T1 sequence (Q9P8Q7 whole entry): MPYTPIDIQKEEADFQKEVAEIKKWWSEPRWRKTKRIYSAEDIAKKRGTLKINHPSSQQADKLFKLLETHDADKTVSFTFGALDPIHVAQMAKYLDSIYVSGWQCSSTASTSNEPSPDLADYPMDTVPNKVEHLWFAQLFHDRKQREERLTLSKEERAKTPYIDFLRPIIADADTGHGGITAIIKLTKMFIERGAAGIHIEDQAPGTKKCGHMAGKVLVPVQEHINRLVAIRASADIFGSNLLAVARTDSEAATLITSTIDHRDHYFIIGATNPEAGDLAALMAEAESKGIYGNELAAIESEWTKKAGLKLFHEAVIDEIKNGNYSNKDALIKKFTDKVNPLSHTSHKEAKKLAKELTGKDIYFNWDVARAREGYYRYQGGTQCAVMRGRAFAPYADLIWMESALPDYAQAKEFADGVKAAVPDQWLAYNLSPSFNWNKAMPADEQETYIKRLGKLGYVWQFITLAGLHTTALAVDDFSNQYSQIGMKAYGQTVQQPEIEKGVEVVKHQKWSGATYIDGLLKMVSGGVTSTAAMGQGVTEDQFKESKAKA

Compound: CC(C)C1NC(=O)C(Cc2ccccc2)NC1=O [Cyclo(L-Phe-L-Val), cyclo(L-Phe-L-Val)]
MIC (C. albicans SC5314; [4]): > 256 µg/mL | MIC (C. albicans SC5314; [5]): 32 µg/mL (≈ 130 µM) | Ki [1]: 64.9 µM | IC50 [1, 6]: 110 µM and 113 µM | type of inhibition ([1]; kinetic analysis): mixed inhibitor | MIC (C. albicans ATCC18804; 2% glucose): > 256 µg/mL | MIC (C. albicans ATCC18804; 2% potassium acetate): 64 µg/mL (≈ 260 µM) | MIC (C. albicans ATCC11006; 2% glucose): > 256 µg/mL | MIC (C. albicans ATCC11006; 2% potassium acetate): 32 µg/mL (≈ 130 µM) | MIC (C. albicans ATCC10231; 2% glucose): > 256 µg/mL | MIC (C. albicans ATCC10231; 2% potassium acetate): 32 µg/mL (≈ 130 µM) | MIC (C. albicans ATCC10259; 2% glucose): > 256 µg/mL | MIC (C. albicans ATCC10259; 2% potassium acetate): 64 µg/mL (≈ 260 µM) | intensity of PCR band of icl product (icl transcript level) (icl mRNA expression): decreased; also recorded: declined | MIC ([2]; Candida albicans, acetate as sole carbon source, range over five strains, read-out: minimum inhibitory concentration): 32 to 64 µg/mL (≈ 130 to 260 µM) | inhibitory effect on C. albicans growth ([2]; glucose as sole carbon source): no inhibitory effect | growth on YNB agar ([3]; 2% glucose plus 32 μg/mL compound): grew normally | growth on YNB agar ([3]; 2% potassium acetate plus 32 μg/mL compound): none of the tested strains exhibited growth; also recorded: no growth

MIC (C. albicans SC5314; [4]): 1 µg/mL (≈ 1.08 µM) | MIC (C. albicans SC5314; [5]): 0.5 µg/mL (≈ 0.541 µM) | MIC (C. albicans ATCC18804; 2% glucose): 1 µg/mL (≈ 1.08 µM) | MIC (C. albicans ATCC18804; 2% potassium acetate): 0.5 µg/mL (≈ 0.541 µM) | MIC (C. albicans ATCC11006; 2% glucose): 0.5 µg/mL (≈ 0.541 µM) | MIC (C. albicans ATCC11006; 2% potassium acetate): 0.5 µg/mL (≈ 0.541 µM) | MIC (C. albicans ATCC10231; 2% glucose): 1 µg/mL (≈ 1.08 µM) | MIC (C. albicans ATCC10231; 2% potassium acetate): 0.5 µg/mL (≈ 0.541 µM) | MIC (C. albicans ATCC10259; 2% glucose): 1 µg/mL (≈ 1.08 µM) | MIC (C. albicans ATCC10259; 2% potassium acetate): 0.5 µg/mL (≈ 0.541 µM)
Compound: C[C@@H]1[C@H](O)[C@@H](C)/C=C/C=C/C=C/C=C/C=C/C=C/C=C/[C@H](O[C@@H]2O[C@H](C)[C@@H](O)[C@H](N)[C@@H]2O)C[C@@H]2O[C@](O)(C[C@@H](O)C[C@@H](O)[C@H](O)CC[C@@H](O)C[C@@H](O)CC(=O)O[C@H]1C)C[C@H](O)[C@H]2C(=O)O [Amphotericin B, reference compound]

Compound: CC(C)C[C@@H]1NC(=O)[C@@H]2CCCN2C1=O [Cyclo(L-Pro-L-Leu), cyclo(L-Pro-L-Leu)]
MIC (C. albicans SC5314; [4]): > 256 µg/mL | IC50 [1, 6]: 534 µM

Compound: CC(C)[C@@H]1NC(=O)[C@@H]2CCCN2C1=O [Cyclo(L-Pro-L-Val), cyclo(L-Pro-L-Val)]
MIC (C. albicans SC5314; [4]): > 256 µg/mL | IC50 [1, 6]: 516 µM

Compound: O=C1NC(Cc2ccc(O)cc2)C(=O)N2CCCC12 [Cyclo(L-Pro-L-Tyr), cyclo(L-Pro-L-Tyr)]
MIC (C. albicans SC5314; [7]): > 256 µg/mL | IC50 [1, 6]: > 984 µM

Compound: O=C1N[C@@H](Cc2ccccc2)C(=O)N2CCC[C@@H]12 [Cyclo(L-Phe-L-Pro), cyclo(L-Phe-L-Pro)]
MIC (C. albicans SC5314; [7]): > 256 µg/mL

Compound: O=C(O)CC[N+](=O)[O-] [3-Nitropropionate, reference compound]
MIC (C. albicans SC5314; 2% glucose, 72 h): >256 µg/mL | ICL IC50 ([1]; 37 °C, 30 min, pH 7.0, n = 3): 1.90 ± 1.57 µg/mL | IC50 ([1]; 37 °C, 30 min, pH 7.0, n = 3, read-out: ICL IC50): 15.9 ± 2.13 µM
